# According to US6706663B2, “Herbicidal 3-heterocyclic substituted benzisothiazole and benzisoxazole compounds” (Wyeth, priority 2000, dated 2004):
# Legend:
# [1] = test system: IPOHE (Ipomoea hederacea); test: Postemergence herbicidal evaluation; type: in vivo, (L.) Jacq.; conditions: postemergence
# In short: (§1)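 Visual 0–9 injury scores versus control plants, covering stand, vigour, malformation, size, chlorosis and general appearance, taken four to five weeks post-spray and averaged over replicate tests. Plants were sprayed at roughly two weeks old and held on greenhouse benches.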
# [2] = test system: ECHCG (Echinochloa crus-galli); test: Postemergence herbicidal evaluation; type: in vivo, (L.) Beau; conditions: postemergence
# In short: as §1
# SETVI (Setaria viridis) [3] = test: Postemergence herbicidal evaluation; type: in vivo, (L.) Beau; conditions: postemergence
# In short: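 Visual injury score (0-9: stand, vigor, malformation, size, chlorosis, overall appearance vs untreated control) taken four to five weeks post-spray. Two-week-old seedlings received about 0.0040 to 1.000 kg/ha active compound in acetone/water with 0.5% TWEEN 20.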
# [4] = test system: GLXMAW (Soybean, Williams); test: Postemergence herbicidal evaluation; type: in vivo, Glycine max, (L.) Merr. cv Williams; conditions: postemergence
# In short: as §1
# ORYSAT (Rice, Tebonnet) [5] = test: Postemergence herbicidal evaluation; type: in vivo, Oryza sativa, (L.) Tebonnet; conditions: postemergence
# In short: as §1
# [6] = test system: TRZAWR (Wheat, Winter, cv Riband); test: Postemergence herbicidal evaluation; type: in vivo, Triticum aestivum; conditions: postemergence
# In short: as §1
# ZEAMX (Corn, Field) = test: Postemergence herbicidal evaluation; type: in vivo, Zea mays, L.; conditions: postemergence
# In short: as §1
# [7] = test system: ABUTH (Abutilon theophrasti); test: Preemergence herbicidal evaluation; type: in vivo, Medic.; conditions: rated 4-5 weeks after treatment
# [8] = test system: AMBEL (Ambrosia artemisifolia); test: Preemergence herbicidal evaluation; type: in vivo, L.; conditions: rated 4-5 weeks after treatment
# In short: (§2)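 Visual 0-9 rating versus untreated control, taken four to five weeks post-treatment, scoring stand, vigor, malformation, size, chlorosis and overall appearance. Compound applied as aqueous acetone spray to freshly seeded soil cups, then kept under standard greenhouse care.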
# [9] = test system: CASOB (Cassia obtusifolia); test: Preemergence herbicidal evaluation; type: in vivo, L.; conditions: rated 4-5 weeks after treatment
# In short: as §2
# [10] = test system: CHEAL (Chenopodium album); test: Preemergence herbicidal evaluation; type: in vivo, L.; conditions: rated 4-5 weeks after treatment
# In short: as §2
# GALAP (Galium aparine) = test: Preemergence herbicidal evaluation; type: in vivo; conditions: rated 4-5 weeks after treatment
# In short: as §2
# [11] = test system: ECHCG (Echinochloa crus-galli); test: Preemergence herbicidal evaluation; type: in vivo, (L.) Beau; conditions: rated 4-5 weeks after treatment
# In short: as §2
# SETVI (Setaria viridis) [12] = test: Preemergence herbicidal evaluation; type: in vivo, (L.) Beau; conditions: rated 4-5 weeks after treatment
# In short: as §2
# ORYSAT (Rice, Tebonnet) [13] = test: Preemergence herbicidal evaluation; type: in vivo, Oryza sativa, (L.) Tebonnet; conditions: rated 4-5 weeks after treatment
# [14] = test system: TRZAWR (Wheat, Winter, cv Riband); test: Preemergence herbicidal evaluation; type: in vivo, Triticum aestivum; conditions: rated 4-5 weeks after treatment
# In short: as §2
# [15] = test system: ECHORC (Echinochloa oryzoides); test: Flooded paddy, preemergence weed control; type: in vivo, Echinochloa oryzoides (Ard.) Fritsch.; conditions: rated 3-4 weeks after treatment, 0-9 rating scale
# In short: (§3)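 Flooded silt loam pots, seeds in upper 0.5 cm, water held 1.5–3 cm deep; greenhouse; visual 0-9 score vs control.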
# [16] = test system: MOOVA (Monochoria vaginalis); test: Flooded paddy, preemergence weed control; type: in vivo, Presl.; conditions: rated 3-4 weeks after treatment, 0-9 rating scale
# In short: as §3
structure (smiles),measurement,setting,value
"Cn1c(C(F)(F)F)cc(=O)n(-c2ccc3snc(C4OCC5(CO4)CO5)c3c2)c1=O (centres unmarked) [Compound 70, 1-methyl-3-(3-spiro[m-dioxane-5,2′-oxiran]-2-yl-1,2-benzisothiazol-5-yl)-6-(trifluoromethyl)uracil]",IPOHE herbicidal rating,[1]; rate 0.0320 kg/ha,7.0
same,IPOHE herbicidal rating,[1]; rate 0.0620 kg/ha,9.0
same,ECHCG herbicidal rating,[2]; rate 0.0320 kg/ha,3.0
same,ECHCG herbicidal rating,[2]; rate 0.0620 kg/ha,4.0
same,SETVI herbicidal rating,SETVI (Setaria viridis) [3]; rate 0.0320 kg/ha,9.0
same,SETVI herbicidal rating,SETVI (Setaria viridis) [3]; rate 0.0620 kg/ha,9.0
same,GLXMAW herbicidal rating,[4]; rate 0.0320 kg/ha,7.0
same,GLXMAW herbicidal rating,[4]; rate 0.0620 kg/ha,8.5
same,ORYSAT herbicidal rating,"ORYSAT (Rice, Tebonnet) [5]; rate 0.0320 kg/ha",5.0
same,ORYSAT herbicidal rating,"ORYSAT (Rice, Tebonnet) [5]; rate 0.0620 kg/ha",6.0
same,TRZAWR herbicidal rating,[6]; rate 0.0320 kg/ha,5.0
same,TRZAWR herbicidal rating,[6]; rate 0.0620 kg/ha,5.5
same,ZEAMX herbicidal rating,"ZEAMX (Corn, Field); rate 0.0320 kg/ha",6.5
same,ZEAMX herbicidal rating,"ZEAMX (Corn, Field); rate 0.0620 kg/ha",7.0
same,Preemergence herbicidal rating ABUTH,[7]; Rate 0.0620 kg/ha,9.0
same,Preemergence herbicidal rating ABUTH,[7]; Rate 0.1250 kg/ha,9.0
same,Preemergence herbicidal rating AMBEL,[8]; Rate 0.0620 kg/ha,7.0
same,Preemergence herbicidal rating AMBEL,[8]; Rate 0.1250 kg/ha,9.0
same,Preemergence herbicidal rating CASOB,[9]; Rate 0.0620 kg/ha,2.0
same,Preemergence herbicidal rating CASOB,[9]; Rate 0.1250 kg/ha,2.0
same,Preemergence herbicidal rating CHEAL,[10]; Rate 0.0620 kg/ha,9.0
same,Preemergence herbicidal rating CHEAL,[10]; Rate 0.1250 kg/ha,9.0
same,Preemergence herbicidal rating GALAP,GALAP (Galium aparine); Rate 0.0620 kg/ha,7.0
same,Preemergence herbicidal rating GALAP,GALAP (Galium aparine); Rate 0.1250 kg/ha,9.0
same,Preemergence herbicidal rating ECHCG,[11]; Rate 0.0620 kg/ha,3.0
same,Preemergence herbicidal rating ECHCG,[11]; Rate 0.1250 kg/ha,7.0
same,Preemergence herbicidal rating SETVI,SETVI (Setaria viridis) [12]; Rate 0.0620 kg/ha,6.0
same,Preemergence herbicidal rating SETVI,SETVI (Setaria viridis) [12]; Rate 0.1250 kg/ha,9.0
same,Preemergence herbicidal rating ORYSAT,"ORYSAT (Rice, Tebonnet) [13]; Rate 0.0620 kg/ha",3.0
same,Preemergence herbicidal rating ORYSAT,"ORYSAT (Rice, Tebonnet) [13]; Rate 0.1250 kg/ha",6.0
same,Preemergence herbicidal rating TRZAWR,[14]; Rate 0.0620 kg/ha,3.0
same,Preemergence herbicidal rating TRZAWR,[14]; Rate 0.1250 kg/ha,7.0
same,"herbicidal rating, ECHORC",[15]; rate 0.0080 kg/ha,0.0
same,"herbicidal rating, ECHORC",[15]; rate 0.0320 kg/ha,0.0
same,"herbicidal rating, ECHORC",[15]; rate 0.1250 kg/ha,0.0
same,"herbicidal rating, MOOVA",[16]; rate 0.0080 kg/ha,0.0
same,"herbicidal rating, MOOVA",[16]; rate 0.0320 kg/ha,0.0
same,"herbicidal rating, MOOVA",[16]; rate 0.1250 kg/ha,0.0
